US20090227492A1, “TREATMENT OF NEUROLOGICAL CONDITIONS USING COMPLEMENT C5a RECEPTOR MODULATORS” (priority 2004, published 2009)
Bridge positions count the residues as written; N and C are the ends. Square brackets hold non-standard residues; d marks the D form. Peptide text beside a SMILES is read from it. * marks the point of attachment. Hydrocinnamoyl = O=C(CCc1ccccc1)*; Cit = NC(=O)NCCC[C@H](N)C(=O)O; dCha = N[C@H](CC1CCCCC1)C(=O)O; Orn = NCCC[C@H](N)C(=O)O

How the values were obtained:
3-NP rat model [1] = experiment: 3-NP rat model (3-nitropropionic acid neurotoxicity); format: in vivo
Experimental: Unless otherwise stated, the protocol for induction of 3-NP neurotoxicity employed in the present study was similar to that of Blum et al (2001; 2002), except that we used 42 mg/kg/day for 7 days rather than 56 mg/kg for 5 days. Briefly, a 90 mg/mL solution of 3-NP in PBS (0.1 M, pH 7.4) was prepared and adjusted to pH 7.4 with 5M NaOH. Alzet osmotic mini-pumps (model 2ML1, delivering 10 μL/hr for 7 days) filled with this solution were implanted into 12 week old male Lewis rats, so that each rat received exactly 42 mg/kg/day.
Rats were housed in individual cages. The rats were anaesthetised with ketamine, xylazine and zolazapam. A pump was inserted s.c. into the back of each rat via an incision between the scapulae, and the incision closed with wound clips. Following recovery from anaesthesia, food intake, body weight and neurological were evaluated daily over the next 7 days. Neurological and behavioural evaluation according to standard criteria was also performed at several points by an observer blinded to the identity of the groups.
After completion of the study, rats were deeply anaesthetised with xylazine and ketamine. The rats were then perfused with approximately 100 mL of sodium nitrite solution to remove blood, followed by approximately 400 mL of formaldehyde solution to fix the brains in situ. Brains were then carefully removed and stored in formaldehyde solution for at least 3 days, before processing for histology. Slides were stained with cresyl violet and examined by light microscopy. […]
PMX53 (10 mg/kg/day) and PMX205 (10 mg/kg/day) were administered daily by gavage and ibuprofen (30 mg/kg/day) administered in the drinking water, beginning 2 days prior to 3-NP administration. Infliximab was administered as a single 5 mg/kg i.v. infusion on Day 0. […]

[2] = tested on: Transgenic Sprague-Dawley rats carrying mutant SOD-1 gene; experiment: transgenic SOD-1 rat model of ALS; format: in vivo; conditions: approximately 1 mg/kg/day in drinking water from 70 days of age; for average age of onset of loss of motor function: male rats, untreated 116+/−4 days; for percent survival over time (mortality) / percentage of rats showing onset of motor symptoms over time: vs untreated
Experimental: Treatment commenced when the rats were 70 days of age. Drugs were dosed in the drinking water at approximately 1 mg/kg/day. A group of 3 wild type (WT) Sprague-Dawley rats (G63) were included as sham control animals. Rats were then monitored daily for signs of motor disturbance, using the following scale:
Body weights were also recorded daily. Rats were euthanised when they reached a score of 4 for the righting response, or had lost >20% of their peak body weight.

3-NP rat model [3] = experiment: histological and histochemical examination of rat brain sections from the 3-NP model (naphthyl esterase, TUNEL); format: in vivo; conditions: brain sections of rats of Example 2
Excerpt: Paraffin sections of brain tissue from the rats used in Example 2 were stained with hematoxylin and eosin and examined under the microscope. […] The TUNEL (TdT-mediated dUTP Nick-End Labeling) assay (Gavrieli, Y., et al. (1992) J. Cell. Biol. 119, 493.) measures nuclear DNA fragmentation, which is an important biochemical hallmark of apoptosis. […] Brain sections were therefore also stained for TUNEL analysis using a standard kit (ApopTag Plus/TUNEL method; Chemicon). Striatal sections of brains containing the area of interest were fixed to a slide and deparaffinized. Slides were then pretreated with Proteinase K (20 μg/mL), and endogenous peroxidases quenched with 3% hydrogen peroxide. Equilibration buffer was then added, followed by TdT enzyme for 1 hour. Samples were then washed, and anti-digoxigenin conjugate added for 30 min. Peroxidase substrate (diaminobenzidine) was then added, and colour allowed to develop over 6 min. Samples were then counterstained with 0.5% methyl green and mounted with Permount. Sections were washed in PBS (0.1 M, ph 7.4) in between each step.

[4] = levels of PMX compounds in brain and plasma following i.v. injection (blood-brain barrier); conditions: female Wistar rats; 3 mg/kg i.v.; 15 min; brain perfused with saline
Experimental: Rats were then left for 15 min, at which point a sample of blood was taken from the tail for plasma collection, and rats were then perfused via cardiac puncture with 150 mL of saline to remove blood from the brain. The brain was then dissected out. Plasma and brain samples of were prepared for pharmacokinetic analysis, and the levels of PMX compounds determined in each sample.

[5] = Example 2, PMX53, PMX205 10 mg/kg/day gavage, ibuprofen 30 mg/kg/day drinking water, infliximab 5 mg/kg i.v. Day 0, 7 days

| Molecule | neurological/behavioural score (3-NP rat model [1]; [5]) | average age of onset of loss of motor function [2] [days] | percent survival over time (mortality) [2] | percentage of rats showing onset of motor symptoms over time [2] | degree of apoptosis (TUNEL) (3-NP rat model [3]) | neutrophil infiltration (naphthyl esterase stain) (3-NP rat model [3]) | further results |
| --- | --- | --- | --- | --- | --- | --- | --- |
| CC(=O)N[C@@H](Cc1ccccc1)C(=O)N[C@H]1CCCNC(=O)[C@H](CCCNC(=N)N)NC(=O)[C@H](Cc2c[nH]c3ccccc23)NC(=O)[C@@H](CC2CCCCC2)NC(=O)[C@@H]2CCCN2C1=O [PMX53, AcPhe[Orn-Pro-D-Cyclohexylalanine-Trp-Arg]] | significant protection | 124 ± 10 | possibly a small improvement | possibly a small improvement | reduced the degree of apoptosis | completely prevented neutrophil infiltration | loss of body weight (3-NP rat model [1]; Example 1 pilot, 2 mg/kg daily in drinking water plus 1 mg/kg s.c. Days 0, 3, 6, 8, Days 5-7, P<0.05, n=5, vs untreated): significantly less loss of body weight; neurological/behavioural score (3-NP rat model [1]; Example 1 pilot, 2 mg/kg daily in drinking water plus 1 mg/kg s.c., Days 4-9, P<0.05, n=5, vs untreated): significantly decreased neurological/behavioural scores; food intake (3-NP rat model [1]; Example 1 pilot, 2 mg/kg daily in drinking water plus 1 mg/kg s.c., Days 5-7, P<0.05, n=5, vs untreated): significantly greater food intake; necrotic cells in the striatal regions (cresyl violet histology) (3-NP rat model [1]; Example 1 pilot, vs controls): fewer necrotic cells; necrotic cells in the striatal regions (cresyl violet histology) (3-NP rat model [1]; Example 2, 10 mg/kg/day gavage, day 7): fewer necrotic cells |
| NC(=O)NCCC[C@@H]1NC(=O)[C@H](Cc2c[nH]c3ccccc23)NC(=O)[C@@H](CC2CCCCC2)NC(=O)[C@@H]2CCCN2C(=O)[C@@H](NC(=O)CCc2ccccc2)CCCNC1=O [PMX200, HC-[OPdChaWCit]] (Hydrocinnamoyl-[Orn]P[dCha]W[Cit]; lactam 1-C) | – | – | – | – | – | – | levels in the brain as a percentage of the levels in the blood (absorption into the brain) [4]: lower degree of absorption |
| N=C(N)NCCC[C@@H]1NC(=O)[C@H](Cc2c[nH]c3ccccc23)NC(=O)[C@@H](CC2CCCCC2)NC(=O)[C@@H]2CCCN2C(=O)[C@@H](NC(=O)CCc2ccccc2)CCCNC1=O [PMX205, Hydrocinnamate-[OpdChaWR]] (Hydrocinnamoyl-[Orn]P[dCha]WR; lactam 1-C) | significant protection | 138 ± 7 | clear delay of mortality | clear delay of motor onset | reduced the degree of apoptosis | completely prevented neutrophil infiltration | period between the first loss of body weight and the first observable loss of motor function [2]: particularly striking |
| CC(C)Cc1ccc(C(C)C(=O)O)cc1 (stereo not drawn) [ibuprofen, reference compound] | an effect only up to Day 5 | – | – | – | – | – | – |
| infliximab [reference compound] | little if any effect | – | – | – | – | – | – |
